# Measured values taken from a melting point compilation (Tetko et al.; mined from patent text by program, amines drawn as free bases though some values may be those of a salt).
row,melting point [°C],Compound
1,138,CCN(CC)c1ccc(C2(c3c(C)n(CC)c4ccccc34)OC(=O)c3ccccc32)c(OCc2ccccc2)c1 (stereo unspecified)
2,161 to 163,CS(=O)(=O)c1ccc(-c2cnn(-c3ccc(F)c(F)c3)c(=O)c2Cc2cccc(F)c2)cc1
3,135 to 137,CCOC(=O)c1ccc(NC(=O)CC(CNS(=O)(=O)c2ccc(C)cc2)c2ccccc2)cc1 (stereo unspecified)
4,115 to 116,CCOP(=O)(CCN1CCNc2c1c(=O)c2=O)OCC
5,132 to 136,CC(Cc1ccc(OCC(=O)O)cc1)NS(=O)(=O)c1ccc(Cl)cc1 (stereo unspecified)
6,81,CCCCC(CC)CNc1nc(N)nc(N)n1 (stereo unspecified)
7,100 to 102,CN(C)CCC=C1c2ccccc2COc2ccc(CCO)cc21
8,200 to 202,CNC(=O)c1cnn(-c2ccccn2)c1C#N
9,85,CCCCCCCCCCCCCCCCCC(=O)n1cc(F)c(=O)n(C(=O)c2ccccc2)c1=O
10,107 to 108,COC(=O)C(=C1NCCCS1)[N+](=O)[O-]
11,100 to 102,O=c1ccc2ccc(OCCCCl)cc2o1
12,155 to 156,CC(C)(O)c1nnc(-c2ccc3occ(-c4cc(F)ccc4F)c3c2)o1
13,188 to 190,Cc1cc(C)c(CCCc2c(C)nc(N)nc2N)cc1C
14,171 to 172,C#CCNC(=C[N+](=O)[O-])NCCSCc1ncccc1Cl
15,215,CCn1cc(C(=O)O)c(=O)c2ccc(N3CCN(C)CC3)cc21
16,> 250,O=C(O)c1ccc2cc(Cl)ccn2c1=O
17,218 to 219,COc1cc(C(=O)O)ccc1Cc1c[nH]c2ccc(NC(=O)CC3CCCC3)cc12
18,180 to 182,CCOC(=O)c1ccc(-c2cnc3c(c2)N(Cc2c(F)ccc(F)c2Cl)C(=O)CN3)cc1
19,274 to 276,CCOC(=O)c1c(-c2ccncc2)[nH]c(-c2ccncc2)c1-c1ccc([N+](=O)[O-])cc1
20,104 to 106,CC(=O)c1ccc2c(c1)ncn2-c1cccc(C(=NOC(C)C)OC2CCCN(C)C2)c1 (stereo unspecified)
21,105 to 106,Cc1cccc(NC(=N)Nc2cccc(C)c2)c1
22,138 to 140,CN1CCN(CC2CCN(c3ncc4ncnc(Nc5ccc(F)c(Cl)c5)c4n3)CC2)CC1
23,121 to 124,CC(CC(=O)O)Oc1ccc(Oc2ccccc2)c(NS(C)(=O)=O)c1 (stereo unspecified)
24,30 to 40,CCCc1nc(Cl)cc(NC)n1

row,melting point [°C],Compound
1,84 to 85,CCCCCCCCCCCCC(C)(CS(=O)(=O)O)C(=O)O (stereo unspecified)
2,170 to 172,CC1(C)OC(=O)C(c2cccc3nnsc23)C(=O)O1
3,119 to 121,CC(C)c1nc(C(C)C)c(CSc2ccc(F)cc2)c(-c2ccc(F)cc2)c1CO
4,128 to 130,CCOc1ccc(OC)cc1C(N)=O
5,116 to 119,CC1(O)CC(=O)OC(CCc2ccc(Cl)cc2)C1Br (stereo unspecified)
6,140 to 142,COC(=O)C(CNC(=O)C1CC1)c1cccc2ccccc12 (stereo unspecified)
7,102 to 104,COC(=O)C(Oc1cc(OCc2ccsc2)ccc1C#N)c1ccccc1C (racemic)
8,148 to 149,Cc1ccc2oc(-c3ccccc3)nc2n1
9,196 to 201,COc1ccnc(OC)c1CON=C(C#N)c1cc(C)cc(C)n1
10,83 to 84,COc1ccc(-c2nc(SCCO)sc2-c2ccc(OC)cc2)cc1
11,216 to 217,CN(C)Cc1ccc(-c2ccc(S(=O)(=O)n3ccc(C=CC(=O)NO)c3)cc2)cc1
12,> 250,NC(=O)c1ncn2c1[C@@H]1CCN1C(=O)c1sccc1-2
13,151 to 154,COCC(=O)c1cc(-c2ccc(S(C)(=O)=O)cc2)n(-c2ccc(F)cc2)n1
14,65 to 68,N#CC=C(c1ccccc1C(F)(F)F)c1ccccc1C(F)(F)F
15,142 to 146,CCOP(=O)(OCC)C(C)(C)CC1(C)NC(=O)NC1=O (stereo unspecified)
16,153 to 155,CP(C)(=O)CNc1cc(Oc2ncc(Cl)cc2Cl)ccc1[N+](=O)[O-]
17,257 to 260,CNC(=O)c1ncn(-c2cc3c(=O)n(NS(C)(=O)=O)c(=O)[nH]c3cc2C(F)(F)F)n1
18,155 to 156,COC(=O)c1cc(-c2ccc(OCc3cccnc3)cc2O[C@H](CCC(=O)O)c2ccccc2C)n[nH]1
19,202 to 204,COc1ccc(N2CCN(C)CC2)c2c1OCC(C(=O)Nc1ccc(N3CCOCC3)cc1)C2 (stereo unspecified)
20,208 to 209,CC(=O)c1c(C=O)[nH]c(-c2ccncc2)c1C
21,108 to 110,CN(CCCNC(=O)c1c2ccccc2nc2ccccc12)CCCNC(=O)c1c2ccccc2nc2c1[nH]c1ccccc12
22,315 to 316,COc1ccc(C(=O)Nc2ccc(S(N)(=O)=O)cc2)c(SSc2cc(OC)ccc2C(=O)Nc2ccc(S(N)(=O)=O)cc2)c1
23,192,Cc1nc(N)c2nc(C)n(CCCN)c2c1C
24,155 to 156,O=C(COc1ccccc1)NCCc1ccc(S(=O)(=O)NC(=O)c2ccc(C(=O)NCCO)nc2)cc1

row,melting point [°C],Compound
1,163 to 165,CC(=O)NC[C@H]1CN(c2ccc3c(c2)OCC(C)N3)C(=O)O1 (stereo partly specified)
2,76 to 79,CCCc1c(OCCCOc2ccc3c(c2CCC)OC(CCC(=O)O)(C(=O)O)CC3=O)ccc(C(C)=O)c1O (stereo unspecified)
3,44 to 45,COc1ncc(Cl)c(C)c1Br
4,136 to 137,Cc1oc(-c2ccccc2)nc1COc1ccc(Cc2nc(CCC(=O)O)c(-c3ccccc3)o2)cc1
5,238 to 240,COc1cc2ncc(C#N)c(Nc3ccccc3C(N)=O)c2cc1OC
6,222 to 228,COc1cc2ncc(C#N)c(Nc3cccc(N)c3)c2cc1OC
7,87 to 90,CCCCOC(=O)c1ccc2c(C(=O)c3ccc(OCCN4CCCCC4)cc3)c(-c3ccc(O)cc3)sc2c1
8,213 to 214,CN1CCc2cc(S(=O)(=O)Nc3cnc4ccc(Cl)cc4n3)ccc21
9,122 to 123,COC(=O)c1ccc(C#CC(O)c2cccc3c2OCCC3(C)C)cc1O (stereo unspecified)
10,94 to 97,CCOCc1cccc2[nH]c3cnc(C(=O)OCC)c(COC)c3c12
11,170 to 171,O=C(CS(=O)(=O)c1ccc(Cl)cc1C(=O)O)c1ccccc1
12,112 to 113,Cc1ccc(C2SCC(=O)CS2)cc1
13,122 to 124,CS(=O)(=O)c1ccc(-c2cc(C(=O)CCCO[N+](=O)[O-])nn2C2CCCCC2)cc1
14,126 to 129,CCOc1c(-c2ccc(F)cc2)c(=O)c1=O
15,86 to 87,CCOC(=O)c1c(CN(CC)CC)nc2sc3c(c2c1-c1ccc(OC)c(OC)c1)CCN(C(=O)c1ccccc1)C3
16,233 to 234,O=C(O)c1c[nH]c(=S)n1C1Cc2cc(F)c(F)cc2C1
17,98 to 101,C[Si](C)(C)O[C@@]1(C(F)(F)F)OCN(C(=O)OCc2ccccc2)[C@H]1Cc1ccccc1
18,60 to 62,C1CCN(CCN2CCNCC2)CC1
19,102,Cc1ccc(C2=NC(C)(C)C(c3ccncc3)C2)cc1 (stereo unspecified)
20,173,COc1cc2c(c3c1c(=O)c1cc4ccccc4cc1n3C)[C@H](OC(=O)N(C)C)[C@H](OC(=O)N(C)C)C(C)(C)O2
21,> 250,O=C(O)c1cc2nc(-c3ccccc3)nn2cc1F
22,90 to 91,COc1ccc(CS[C@@H]2C[C@@H](C(=O)OCc3ccccc3)N(S(=O)(=O)c3ccc4ccccc4c3)C2)cc1
23,205 to 207,COc1ccc(C(=O)n2c3c(c4ccccc42)CC(C(=O)O)(C(=O)O)CC3)cc1
24,73 to 75,CCOC(=O)C(Cc1ccc(Cl)cc1)NC(=S)Nc1ccc(C(C)C)cc1 (stereo unspecified)

row,melting point [°C],Compound
1,69 to 72,CCCCCCC(=O)c1ccc2cc(OC)ccc2c1
2,150,Cn1c(N=C=O)c(-c2ccccc2)c2cc(Cl)ccc21
3,68 to 70,CN(C)CCCC1(O)c2ccccc2CCn2cccc21 (stereo unspecified)
4,106 to 108,O=C(OCc1ccccc1)[C@H](CCCCO)N1C(=O)c2ccccc2C1=O
5,258 to 260,CCOc1cc2c(cc1OC)CCN(c1nc(N)c3cc(OC)c(OC)cc3n1)C2
6,194,Oc1cc(-c2ccc(Cl)cc2F)n[nH]1
7,140 to 143,Brc1ccc2cnncc2c1
8,82,Cc1c(CCCCCC(=O)O)cccc1C(=O)c1ccc(Cl)cc1
9,263 to 264,O=C(O)c1cc(C(=O)O)c(C(O)=NCc2ccc(C(F)(F)F)cc2)cc1C(O)=NCc1ccc(C(F)(F)F)cc1
10,88 to 91,CCOC(=O)C(C)=C(C)NC(=O)Nc1ccc(Cl)c(C(=O)OCC)c1
11,100 to 103,CN(C(=S)c1ccccn1)c1cccc(F)c1
12,156 to 158,O=C1CC(c2ccc(-c3ccc(Br)cc3)cc2)Cc2ccccc21 (stereo unspecified)
13,218 to 220,COc1cccc2c(Nc3ccccc3C)nc(N)nc12
14,100 to 102,NC(=O)CCC(CCCCNS(=O)(=O)c1ccc(Cl)cc1)CCCc1cccnc1 (stereo unspecified)
15,111 to 112,OCc1csc(CN2CCCC2)c1
16,143 to 145,Cc1nc(OCCN2CCOCC2)c([N+](=O)[O-])c(N2CCc3ccccc3CC2)n1
17,184 to 186,Cc1nc2cccc(OCC(C)(C)NC(=O)C(C)C)c2c(N)c1C(=O)O
18,85 to 86,C=CCC(N)(c1ccccc1)C(O)c1ccccc1 (stereo unspecified)
19,320,O=c1ccc2c(=O)c3ccccc3ccc2[nH]1
20,246 to 247,CC(C)n1c(=O)c(=O)[nH]c2cccnc21
21,248 to 253,Nc1ccc([N+](=O)[O-])cc1S(=O)(=O)CCc1ccc(S(=O)(=O)O)cc1
22,84 to 86,CN(C)c1c(-c2ccccc2)sc2ccccc12
23,118 to 119,O=C(OC1C(=O)NC1c1ccccc1)c1ccccc1 (stereo unspecified)
24,214,Cc1cc(C2CCC(c3ccc(O)cc3)CC2)ccc1O (stereo unspecified)

row,Compound,melting point [°C]
1,CCCCC(=O)C1(Nc2ccccc2)CCN(CCc2ccccc2)CC1,71.3
2,CCOC(=O)Nc1nc(C)c(-c2nc3ccccc3c(=O)n2-c2ccc(Cl)cc2)s1,> 275
3,Nc1cccc(P(=O)(O)O)c1,300
4,COc1ccc(C2(C(C)NCc3ccncc3)CCC2)cc1 (stereo unspecified),110 to 113
5,C[C@H](N)C(=O)NC1N=C(C2CCCCC2)c2ccccc2N(C)C1=O (stereo partly specified),205 to 206
